Reference: US8618068B2, “Methods and low dose regimens for treating red blood cell disorders” (priority 2009, dated 2013)

Columns and labels:
[1] = Phase 2 trial in thalassemia intermedia patients, safety; type: in vivo, human
Description: (§1) A randomized, doubled blind, placebo-controlled, multiple ascending dose Phase I/II trial was conducted in 21 adult patients with beta thalassemia intermedia, including 14 patients with HbE/β^0 thalassemia from Thailand and 7 patients with β^+/β^0 thalassemia (including 12 different beta globin gene mutations). Study medication was taken as a single daily dose of DMB for 8 weeks followed minimally by a 4 week break and follow-up period. Four ascending dose levels (10, 20, 30, and 40 mg/kg/day) were sequentially evaluated in 4 dose level cohorts after the preceding dose and schedule were determined safe by an independent and unblinded Safety Monitoring Committee.
(§2) All treatment groups had two placebo patients; placebo patients in the first dose group were randomized to treatment in the second dose group. Ten patients in Thailand (all HbE type) were treated with 10 mg/kg (8 active/2 placebo) followed by eight patients in Thailand who were treated followed by 30 mg/kg (6 active/2 placebo). Eleven patients (4 That, 7 Lebanese) were treated with 20 mg/kg followed by 40 mg/kg (9 active [6 Lebanese/3 That]/2 placebo). Patients ranged in age from 17 to 49 with a median age of 31 and were comprised for 16 females and 5 males.
(§3) Patients were monitored every 2 weeks for laboratory studies, physical examinations, and adverse events. Further, patients were followed for hematologic parameters primarily focusing on hemoglobin and fetal hemoglobin (HbF). In addition, pharmacokinetic samples were obtained on Day 0 and 13, at pre-dose and 2, 4, 6, 8, 12, and 24 hours post-dosing. Hemoglobin was measured at each site using standard hematology equipment. HbF was measured using Varian HPLC. […] Adverse events in treated subjects included headache, upper respiratory infection, pyrexia, fatigue, nausea, and dizziness, but the rates of such events were not markedly different from those observed in the placebo-treated subjects.

Solubility in water = type: physicochemical
[2] = Phase 1 repeat-dose clinical study, safety; type: in vivo, human
Description: DMB was evaluated in a phase 1, placebo-controlled, randomized, repeat dose clinical study that evaluated tolerability, safety, and pharmacokinetics in healthy volunteers. A total of 41 subjects (31 receiving active drug and 10 receiving placebo) completed 14 consecutive days of study medication at daily dose levels of 5, 10 or 15 mg/kg (10 subjects received placebo). Given the importance of iron in red blood cell production, and the requirement for iron supplementation for induction of HbF with other erythropoietic agents, subjects at all 3 dose levels received oral ferrous gluconate on the study medication days. DMB was administered with food to all but one group (5 mg/kg, cohort 1). Subjects were admitted and observed for 24 hours following initial dosing. Thereafter, the study drug was taken once per day at home, except for the last study day. The subjects were monitored weekly for 6 weeks. Thirty-seven subjects completed the study and 4 subjects dropped out due to conflicts. Safety and PK data are available on these subjects.
The treatment groups included: Cohort 1: 5 mg/kg fasting, 6 active, 2 placebo; Cohort 2: 5 mg/kg with food, 7 active, 2 placebo (3 drop outs); Cohort 3: 5 mg/kg with food and iron supplements, 6 active, 2 placebo (1 drop out); Cohort 4: 10 mg/kg with food and iron supplements, 6 active, 2 placebo; and Cohort 5: 15 mg/kg with food and iron supplements, 6 active, 2 placebo. Subjects in Cohorts 3, 4, and 5 received a single daily dose of ferrous gluconate (325 mg). The iron supplement was administered to evaluate study medication tolerability when taken with iron. No subjects discontinued due to AEs or safety concerns. Fewer subjects reported an event in the highest dose cohort following eating a meal ([…]) than were reported in the lower dose cohorts ([…], 5 and 10 mg/kg).
The AEs observed in this study are described in Table 11. All events were assessed as mild by the Principal Investigator and resolved either on study or post study. No SAEs were reported. Two subjects had transient lymphadenopathy that were not considered related to study medication. No laboratory abnormalities of significance were noted except one patient developed a urinary tract infection. No clinically significant ECG abnormalities were noted.

fetal hemoglobin (HbF) = experiment: Phase 2 trial in thalassemia intermedia patients, HbF and total hemoglobin; type: in vivo, human
Description: as §1, §2, §3

hERG channels = target: T1, hERG channels (Homo sapiens, UniProt Q12809); experiment: hERG channel, voltage-clamped human embryonic kidney cells; type: cell-based; details: concentrations up to 1 mM (138 μg/mL)
T1 construct: expressed in transfected cells
Description: Cardiovascular safety pharmacology assessments included an in vitro screen to evaluate the effects of DMB on cardiac ion channel and an in vivo evaluation of cardiovascular and hemodynamic effects in Beagle dogs. Electrophysiologic effects were evaluated in laboratory studies utilizing voltage-clamped human embryonic kidney cells transformed by adenovirus cDNA and transfected with cDNA in order to stably express the human ether a-go-go related gene (hERG). The effect on cellular hERG channels was evaluated at DMB concentrations up to 1 mM (138 μg/mL).

T1 sequence (Q12809 whole entry): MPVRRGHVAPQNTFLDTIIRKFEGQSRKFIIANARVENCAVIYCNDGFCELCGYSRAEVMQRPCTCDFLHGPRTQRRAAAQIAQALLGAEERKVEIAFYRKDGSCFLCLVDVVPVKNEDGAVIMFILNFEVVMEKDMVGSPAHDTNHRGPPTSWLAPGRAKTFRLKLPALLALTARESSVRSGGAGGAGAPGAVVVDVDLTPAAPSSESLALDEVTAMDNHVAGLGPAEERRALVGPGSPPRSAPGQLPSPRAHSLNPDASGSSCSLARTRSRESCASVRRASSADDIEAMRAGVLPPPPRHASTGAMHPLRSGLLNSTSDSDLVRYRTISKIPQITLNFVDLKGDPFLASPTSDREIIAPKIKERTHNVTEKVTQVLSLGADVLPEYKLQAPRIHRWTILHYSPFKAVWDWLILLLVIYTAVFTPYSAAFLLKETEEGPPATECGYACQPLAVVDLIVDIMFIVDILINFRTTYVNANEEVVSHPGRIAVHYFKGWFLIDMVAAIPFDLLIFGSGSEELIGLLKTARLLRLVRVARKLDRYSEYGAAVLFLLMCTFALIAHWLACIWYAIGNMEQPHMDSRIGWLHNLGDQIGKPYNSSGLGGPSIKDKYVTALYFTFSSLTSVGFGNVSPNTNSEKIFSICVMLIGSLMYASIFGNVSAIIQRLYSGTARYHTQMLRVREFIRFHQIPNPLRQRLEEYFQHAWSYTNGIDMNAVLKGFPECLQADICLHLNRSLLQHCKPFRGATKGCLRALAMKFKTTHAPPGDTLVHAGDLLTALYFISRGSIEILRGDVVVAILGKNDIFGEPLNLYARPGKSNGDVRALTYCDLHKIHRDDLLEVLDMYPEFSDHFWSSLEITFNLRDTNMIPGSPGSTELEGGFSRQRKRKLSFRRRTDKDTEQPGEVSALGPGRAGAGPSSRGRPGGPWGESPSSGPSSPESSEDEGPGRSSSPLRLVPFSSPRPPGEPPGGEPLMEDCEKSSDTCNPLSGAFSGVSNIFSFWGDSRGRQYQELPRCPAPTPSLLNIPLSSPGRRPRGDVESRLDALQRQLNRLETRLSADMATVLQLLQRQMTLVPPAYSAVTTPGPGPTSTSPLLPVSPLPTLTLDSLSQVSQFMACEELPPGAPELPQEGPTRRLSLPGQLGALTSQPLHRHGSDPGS

SMILES: CCC(C)(C)C(=O)[O-].[Na+] [DMB, Sodium 2,2-dimethylbutyrate]
- Dizziness ([1]; 10 mg/kg): 2 (25) n (%)
- Fatigue ([1]; 10 mg/kg): 1 (13) n (%)
- Headache ([1]; 10 mg/kg): 5 (63) n (%)
- Nausea ([1]; 10 mg/kg): 0 n (%)
- Pyrexia ([1]; 10 mg/kg): 3 (38) n (%)
- Serious adverse event: Palpitations ([1]; 10 mg/kg): 1 (13) 10 mg/kg n (%)
- Treatment Related? (Palpitations) ([1]; 10 mg/kg): Not related to treatment
- Upper Respiratory Tract Infection ([1]; 10 mg/kg): 5 (63) n (%)
- subjects who discontinued study medication due to anemia ([1]; 10 mg/kg, considered not related to study medication): Two
- Dizziness ([1]; 20 mg/kg): 2 (22) n (%)
- Fatigue ([1]; 20 mg/kg): 0 n (%)
- Headache ([1]; 20 mg/kg): 3 (33) n (%)
- Nausea ([1]; 20 mg/kg): 2 (22) n (%)
- Pyrexia ([1]; 20 mg/kg): 0 n (%)
- Serious adverse event: Suprapubic Pain ([1]; 20 mg/kg): 1 (11) 20 mg/kg n (%)
- Treatment Related? (Suprapubic Pain) ([1]; 20 mg/kg): Unlikely related
- Upper Respiratory Tract Infection ([1]; 20 mg/kg): 2 (22) n (%)
- Dizziness ([1]; 30 mg/kg): 0 n (%)
- Fatigue ([1]; 30 mg/kg): 0 n (%)
- Headache ([1]; 30 mg/kg): 2 (33) n (%)
- Nausea ([1]; 30 mg/kg): 0 n (%)
- Pyrexia ([1]; 30 mg/kg): 2 (33) n (%)
- Upper Respiratory Tract Infection ([1]; 30 mg/kg): 1 (17) n (%)
- Dizziness ([1]; 40 mg/kg): 1 (11) n (%)
- Fatigue ([1]; 40 mg/kg): 4 (44) n (%)
- Headache ([1]; 40 mg/kg): 1 (11) n (%)
- Nausea ([1]; 40 mg/kg): 3 (33) n (%)
- Pyrexia ([1]; 40 mg/kg): 1 (11) n (%)
- Serious adverse event: Gastritis ([1]; 40 mg/kg): 1 (11) 40 mg/kg n (%)
- Treatment Related? (Gastritis) ([1]; 40 mg/kg): Not related to treatment
- Upper Respiratory Tract Infection ([1]; 40 mg/kg): 1 (11) n (%)
- tolerability ([1]; 10 to 40 mg/kg/day, 8 weeks): well tolerated
- Serious adverse event: Gastroenteritis ([1]; HQK-1001 groups): 0 n (%)
- Serious adverse event: Upper Respiratory Infection ([1]; HQK-1001 groups): 0 n (%)
- solubility (Solubility in water): > 500 mg/mL
- SAEs reported ([2]; 5, 10, 15 mg/kg for 14 days): No SAEs
- dose limiting toxicity ([2]; 5, 10, 15 mg/kg for 14 days): No dose limiting toxicity
- tolerability ([2]; 5 to 15 mg/kg/day for 14 consecutive days): well-tolerated
- Subject incidence of Abdominal pain ([2]; DMB N = 31): 3%
- Subject incidence of Contusion of elbow ([2]; DMB N = 31): 3%
- Subject incidence of Diarrhea ([2]; DMB N = 31): 6%
- Subject incidence of Fatigue ([2]; DMB N = 31): 3%
- Subject incidence of Flatulence ([2]; DMB N = 31): 6%
- Subject incidence of Gastritis ([2]; DMB N = 31): 3%
- Subject incidence of Gastroenteritis ([2]; DMB N = 31): 3%
- Subject incidence of Headache ([2]; DMB N = 31): 23%
- Subject incidence of Light-headedness ([2]; DMB N = 31): 3%
- Subject incidence of Lymphadenopathy, inguinal ([2]; DMB N = 31): 3%
- Subject incidence of Menstrual cramps ([2]; DMB N = 31): 6%
- Subject incidence of Nausea ([2]; DMB N = 31): 6%
- Subject incidence of Pharyngeal erythema ([2]; DMB N = 31): 3%
- Subject incidence of Pharyngitis ([2]; DMB N = 31): 6%
- Subject incidence of Pregnancy ([2]; DMB N = 31): 3%
- Subject incidence of Reflux esophagitis ([2]; DMB N = 31): 3%
- Subject incidence of Spasm, esophageal ([2]; DMB N = 31): 3%
- Subject incidence of Sunburn ([2]; DMB N = 31): 3%
- Subject incidence of Upper respiratory infection ([2]; DMB N = 31): 3%
- Subject incidence of Urinary tract infection ([2]; DMB N = 31): 3%
- Subject incidence of Vaginal candidiasis ([2]; DMB N = 31): 3%
- patients in whom total hemoglobin increased (fetal hemoglobin (HbF); 20 mg/kg group): 2 out of 9
- dose level with the largest increase in HbF (fetal hemoglobin (HbF); Day 55): 20 mg/kg
- change in HbF at Day 55 (fetal hemoglobin (HbF); all 4 DMB dose groups, compared to minimal change in placebo): median increases
- Median change from baseline to Day 55 in total hemoglobin (fetal hemoglobin (HbF); all groups including placebo): decreases
- activity on hERG channel function (hERG channels): essentially no activity
